Target: T1, F508del (Homo sapiens, UniProt P13569, DEL508-508)
T1 construct: expressed in transfected cells
Assay: Protocol 1: membrane potential optical assay (FLIPR III, voltage sensing dye), identification of potentiator compounds
Assay type: cell-based
Settings: Table 3, compounds of Table 1
How it was run: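 Membrane potential in forskolin-activated, temperature-rescued F508del NIH 3T3 cells is followed with a voltage-sensing dye on FLIPR III. A chloride ion gradient created at the single addition step provides the driving force, after prior compound treatment.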

T1 sequence (P13569 with tags, fused parts or gaps DEL508-508): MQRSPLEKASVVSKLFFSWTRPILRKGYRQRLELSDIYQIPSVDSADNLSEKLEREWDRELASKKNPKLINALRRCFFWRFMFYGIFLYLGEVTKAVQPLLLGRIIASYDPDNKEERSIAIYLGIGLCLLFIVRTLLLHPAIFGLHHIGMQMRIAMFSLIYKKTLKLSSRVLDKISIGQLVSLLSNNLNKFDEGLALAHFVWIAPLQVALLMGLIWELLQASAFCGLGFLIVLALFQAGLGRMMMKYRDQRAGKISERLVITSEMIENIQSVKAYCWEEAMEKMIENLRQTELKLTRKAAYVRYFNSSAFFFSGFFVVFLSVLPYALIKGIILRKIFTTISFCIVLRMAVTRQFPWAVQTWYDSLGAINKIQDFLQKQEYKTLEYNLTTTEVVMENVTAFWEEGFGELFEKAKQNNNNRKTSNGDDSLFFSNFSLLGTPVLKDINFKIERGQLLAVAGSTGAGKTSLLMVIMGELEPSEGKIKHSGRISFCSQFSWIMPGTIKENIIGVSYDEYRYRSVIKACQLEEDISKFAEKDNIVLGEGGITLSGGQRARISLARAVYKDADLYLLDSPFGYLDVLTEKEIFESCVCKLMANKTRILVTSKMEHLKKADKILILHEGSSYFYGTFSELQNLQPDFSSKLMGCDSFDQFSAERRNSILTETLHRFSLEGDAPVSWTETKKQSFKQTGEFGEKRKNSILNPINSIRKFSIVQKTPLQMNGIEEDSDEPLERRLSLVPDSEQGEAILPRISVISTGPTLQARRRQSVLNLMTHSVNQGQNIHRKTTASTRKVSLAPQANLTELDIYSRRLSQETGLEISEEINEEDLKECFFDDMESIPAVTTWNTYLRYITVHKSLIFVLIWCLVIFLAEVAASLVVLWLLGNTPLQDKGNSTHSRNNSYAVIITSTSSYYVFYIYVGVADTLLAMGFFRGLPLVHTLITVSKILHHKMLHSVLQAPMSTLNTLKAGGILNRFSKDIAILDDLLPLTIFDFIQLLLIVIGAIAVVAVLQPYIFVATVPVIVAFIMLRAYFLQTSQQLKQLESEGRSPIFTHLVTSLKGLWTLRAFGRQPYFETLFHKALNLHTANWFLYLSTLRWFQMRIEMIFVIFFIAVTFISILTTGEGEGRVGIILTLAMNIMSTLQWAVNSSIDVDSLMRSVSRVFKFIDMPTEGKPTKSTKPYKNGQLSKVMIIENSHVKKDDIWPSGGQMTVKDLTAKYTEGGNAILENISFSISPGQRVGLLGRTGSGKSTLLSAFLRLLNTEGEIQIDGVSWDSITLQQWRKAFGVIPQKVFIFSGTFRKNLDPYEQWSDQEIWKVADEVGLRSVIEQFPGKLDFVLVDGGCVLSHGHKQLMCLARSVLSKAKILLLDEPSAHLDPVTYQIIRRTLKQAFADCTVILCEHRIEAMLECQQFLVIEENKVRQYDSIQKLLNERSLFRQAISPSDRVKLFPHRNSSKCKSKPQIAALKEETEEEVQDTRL

| Compound | EC30 |
| --- | --- |
| Cc1cc(OCC(C)C)ncc1-c1ccc(C(=O)NS(=O)(=O)c2cccc(N)n2)c(N2CC(C)CC2(C)C)n1 (centres unmarked) [Compound 851, N-[(6-amino-2-pyridyl)sulfonyl]-6-(6-isobutoxy-4-methyl-3-pyridyl)-2-(2,2,4-trimethylpyrrolidin-1-yl)pyridine-3-carboxamide] | +++ (“+++” means <3 uM) |
| CC(C)COc1cc(F)cc(-c2ccc(C(=O)NS(=O)(=O)c3cccc(N)n3)c(N3CCC[C@@H]3C(C)(C)C)n2)c1 [Compound 1170, N-[(6-amino-2-pyridyl)sulfonyl]-2-[(2R)-2-tert-butylpyrrolidin-1-yl]-6-(3-fluoro-5-isobutoxy-phenyl)pyridine-3-carboxamide] | +++ (“+++” means <3 uM) |
| CC1CN(c2ncccc2C(=O)NS(=O)(=O)c2cccc(OCCc3ccc(F)cc3)n2)C(C)(C)C1 (centres unmarked) [Compound 1704, N—[[6-[2-(4-fluorophenyl)ethoxy]-2-pyridyl]sulfonyl]-2-(2,2,4-trimethylpyrrolidin-1-yl)pyridine-3-carboxamide] | +++ (“+++” means <3 uM) |
| CC(C)COc1cccc(-c2ccc(C(=O)NS(=O)(=O)c3cccc(N)n3)c(N3C[C@@H](C)CC3(C)C)n2)c1 [Compound 1969, N-[(6-amino-2-pyridyl)sulfonyl]-6-(3-isobutoxyphenyl)-2-[(4S)-2,2,4-trimethylpyrrolidin-1-yl]pyridine-3-carboxamide] | +++ (“+++” means <3 uM) |
| CC(C)COc1cc(F)cc(-c2ccc(C(=O)NS(=O)(=O)c3cccc(N)n3)c(OC(C)C3CC3)n2)c1 (centres unmarked) [Compound 1165, N-[(6-amino-2-pyridyl)sulfonyl]-2-(1-cyclopropylethoxy)-6-(3-fluoro-5-isobutoxy-phenyl)pyridine-3-carboxamide] | ++ (“++” means between 3 uM and 10 uM) |
| CC1CCN(c2nc3c(cc2C(=O)NS(=O)(=O)c2ccn[nH]2)CCCC3(C)C)CC1 [Compound 800, 8,8-dimethyl-2-(4-methyl-1-piperidyl)-N-(1H-pyrazol-5-ylsulfonyl)-6,7-dihydro-5H-quinoline-3-carboxamide] | ++ (“++” means between 3 uM and 10 uM) |
| CC(=O)NC1CCCN(S(=O)(=O)NC(=O)c2ccc(-c3cc(F)cc(OCC(C)C)c3)nc2N2CC(C)CC2(C)C)C1 (centres unmarked) [Compound 1586, N-[(3-acetamido-1-piperidyl)sulfonyl]-6-(3-fluoro-5-isobutoxy-phenyl)-2-(2,2,4-trimethylpyrrolidin-1-yl)pyridine-3-carboxamide] | +++ (“+++” means <3 uM) |
| CC(C)COc1cc(F)cc(-c2ccc(C(=O)NS(=O)(=O)c3cccc(CO)n3)c(N3CCC(C)CC3)n2)c1 [Compound 1340, 6-(3-fluoro-5-isobutoxy-phenyl)-N-[[6-(hydroxymethyl)-2-pyridyl]sulfonyl]-2-(4-methyl-1-piperidyl)pyridine-3-carboxamide] | +++ (“+++” means <3 uM) |
| CC(C)COc1cc(F)cc(-c2ccc(C(=O)NS(=O)(=O)c3cccc(N)n3)c(N3CCCC34CCC4)n2)c1 [Compound 845, N-[(6-amino-2-pyridyl)sulfonyl]-2-(8-azaspiro[3.4]octan-8-yl)-6-(3-fluoro-5-isobutoxy-phenyl)pyridine-3-carboxamide] | +++ (“+++” means <3 uM) |
| CC(C)COc1cc(F)cc(-c2ccc(C(=O)NS(=O)(=O)c3cccc(N)n3)c(N3CCCC4CCCC43)n2)c1 (centres unmarked) [Compound 1313, 2-(2,3,4,4a,5,6,7,7a-octahydrocyclopenta[b]pyridin-1-yl)-N-[(6-amino-2-pyridyl)sulfonyl]-6-(3-fluoro-5-isobutoxy-phenyl)pyridine-3-carboxamide] | +++ (“+++” means <3 uM) |
| CCOc1cc(C)n(-c2ccc(C(=O)NS(=O)(=O)c3cccc(N)n3)c(N3C[C@@H](C)CC3(C)C)n2)n1 [Compound 1473, N-[(6-amino-2-pyridyl)sulfonyl]-6-(3-ethoxy-5-methyl-pyrazol-1-yl)-2-[(4S)-2,2,4-trimethylpyrrolidin-1-yl]pyridine-3-carboxamide] | +++ (“+++” means <3 uM) |
| CCCC/C=C/c1cnc(N2CC(C)CC2(C)C)c(C(=O)NS(=O)(=O)c2cccc(N)n2)c1 (centres unmarked) [Compound 1916, N-[(6-amino-2-pyridyl)sulfonyl]-5-[(E)-hex-1-enyl]-2-(2,2,4-trimethylpyrrolidin-1-yl)pyridine-3-carboxamide] | +++ (“+++” means <3 uM) |
| CC(C)Cc1ccc(C(=O)NS(=O)(=O)c2cccc(N)n2)c(N2C[C@@H](C)CC2(C)C)n1 [Compound 1599, N-[(6-amino-2-pyridyl)sulfonyl]-6-isobutyl-2-[(4S)-2,2,4-trimethylpyrrolidin-1-yl]pyridine-3-carboxamide] | +++ (“+++” means <3 uM) |
| CC(C)COc1cc(F)cc(-c2ccc(C(=O)NS(=O)(=O)c3cccc(N)n3)c(OCCCn3cccn3)n2)c1 [Compound 1692, N-[(6-amino-2-pyridyl)sulfonyl]-6-(3-fluoro-5-isobutoxy-phenyl)-2-(3-pyrazol-1-ylpropoxy)pyridine-3-carboxamide] | ++ (“++” means between 3 uM and 10 uM) |
| CC1CN(c2ncc(-c3cc(OC(C)C)cc(C(F)(F)F)c3)cc2C(=O)NS(=O)(=O)c2cccc(N)n2)C(C)(C)C1 (centres unmarked) [Compound 1815, N-[(6-amino-2-pyridyl)sulfonyl]-5-[3-isopropoxy-5-(trifluoromethyl)phenyl]-2-(2,2,4-trimethylpyrrolidin-1-yl)pyridine-3-carboxamide] | +++ (“+++” means <3 uM) |
| CC(C)(C)c1ccc(C(=O)NS(=O)(=O)c2cccc(N)n2)c(OC2CC3CCC2C3)n1 (centres unmarked) [Compound 1349, N-[(6-amino-2-pyridyl)sulfonyl]-6-tert-butyl-2-norbornan-2-yloxy-pyridine-3-carboxamide] | +++ (“+++” means <3 uM) |
| CCC1CCC(C)N1c1nc(-c2cc(F)cc(OCC(C)C)c2)ccc1C(=O)NS(=O)(=O)c1cccc(N)n1 (centres unmarked) [Compound 1222, N-[(6-amino-2-pyridyl)sulfonyl]-2-(2-ethyl-5-methyl-pyrrolidin-1-yl)-6-(3-fluoro-5-isobutoxy-phenyl)pyridine-3-carboxamide] | +++ (“+++” means <3 uM) |
| Cc1ccc(-c2nc(-c3cc(F)cc(OC(C)C)c3)ccc2C(=O)NS(=O)(=O)c2ccn[nH]2)cc1 [Compound 849, 6-(3-fluoro-5-isopropoxy-phenyl)-2-(p-tolyl)-N-(1H-pyrazol-5-ylsulfonyl)pyridine-3-carboxamide] | + (“+” means greater than 10 uM) |

More lines, now with the values ahead:

| EC30 | Compound |
| --- | --- |
| +++ (“+++” means <3 uM) | CCOc1cccc2c1CN(Cc1c(C)cc(C)cc1C)C2(C)C(=O)NS(=O)(=O)c1cccc(OC)c1 (centres unmarked) [Compound 1470, 4-ethoxy-N-(3-methoxyphenyl)sulfonyl-1-methyl-2-[(2,4,6-trimethylphenyl)methyl]isoindoline-1-carboxamide] |
| ++ (“++” means between 3 uM and 10 uM) | Cc1cc(C)c(CN2Cc3ccccc3C2(C)C(=O)NS(=O)(=O)c2ccc[nH]c2=O)c(C)c1 (centres unmarked) [Compound 1237, 1-methyl-N-[(2-oxo-1H-pyridin-3-yl)sulfonyl]-2-[(2,4,6-trimethylphenyl)methyl]isoindoline-1-carboxamide] |
| +++ (“+++” means <3 uM) | CC1CN(c2ncccc2C(=O)NS(=O)(=O)c2cccc(OCc3ccc(Cl)cc3Cl)n2)C(C)(C)C1 (centres unmarked) [Compound 1929, N—[[6-[(2,4-dichlorophenyl)methoxy]-2-pyridyl]sulfonyl]-2-(2,2,4-trimethylpyrrolidin-1-yl)pyridine-3-carboxamide] |
| +++ (“+++” means <3 uM) | C[C@@H]1CN(c2nc(-c3cc(F)cc(F)c3F)ccc2C(=O)NS(=O)(=O)c2ccc[nH]c2=O)C(C)(C)C1 [Compound 1837, N-[(2-oxo-1H-pyridin-3-yl)sulfonyl]-6-(2,3,5-trifluorophenyl)-2-[(4S)-2,2,4-trimethylpyrrolidin-1-yl]pyridine-3-carboxamide] |
| +++ (“+++” means <3 uM) | CC(=O)C1CC=C(c2ccc(C(=O)NS(=O)(=O)c3cccc(N)n3)c(Oc3c(C)cc(C)cc3C)n2)CC1 (centres unmarked) [Compound 1615, 6-(4-acetylcyclohexen-1-yl)-N-[(6-amino-2-pyridyl)sulfonyl]-2-(2,4,6-trimethylphenoxy)pyridine-3-carboxamide] |
| +++ (“+++” means <3 uM) | C[C@@H]1CN(c2nc(-c3cccc4ccccc34)ccc2C(=O)NS(=O)(=O)c2cccnc2N)C(C)(C)C1 [Compound 1857, N-[(2-amino-3-pyridyl)sulfonyl]-6-(1-naphthyl)-2-[(4S)-2,2,4-trimethylpyrrolidin-1-yl]pyridine-3-carboxamide] |
| ++ (“++” means between 3 uM and 10 uM) | Cc1cc(C)c(Oc2nc(-c3ccc4[nH]ncc4c3)ccc2C(=O)NS(=O)(=O)c2cccc(N)n2)c(C)c1 [Compound 856, N-[(6-amino-2-pyridyl)sulfonyl]-6-(1H-indazol-5-yl)-2-(2,4,6-trimethylphenoxy)pyridine-3-carboxamide] |
| + (“+” means greater than 10 uM) | Cc1cc(C)c(Oc2nc(-c3cccc(F)c3F)ccc2C(=O)NS(=O)(=O)c2ccc[nH]c2=O)c(C)c1 [Compound 1296, 6-(2,3-difluorophenyl)-N-[(2-oxo-1H-pyridin-3-yl)sulfonyl]-2-(2,4,6-trimethylphenoxy)pyridine-3-carboxamide] |
| +++ (“+++” means <3 uM) | Cc1cc(C)c(Oc2nc(-c3cccc(C#N)c3)ccc2C(=O)NS(=O)(=O)c2cccc(N)n2)c(C)c1 [Compound 886, N-[(6-amino-2-pyridyl)sulfonyl]-6-(3-cyanophenyl)-2-(2,4,6-trimethylphenoxy)pyridine-3-carboxamide] |
| +++ (“+++” means <3 uM) | CCC1CC=C(c2ccc(C(=O)NS(=O)(=O)c3cccc(N)n3)c(Oc3c(C)cc(C)cc3C)n2)CC1 (centres unmarked) [Compound 1370, N-[(6-amino-2-pyridyl)sulfonyl]-6-(4-ethylcyclohexen-1-yl)-2-(2,4,6-trimethylphenoxy)pyridine-3-carboxamide] |
| +++ (“+++” means <3 uM) | Cc1cc(C)c(Oc2nc(-c3ccc(C)c(F)c3)ccc2C(=O)NS(=O)(=O)c2cccc(N)n2)c(C)c1 [Compound 1000, N-[(6-amino-2-pyridyl)sulfonyl]-6-(3-fluoro-4-methyl-phenyl)-2-(2,4,6-trimethylphenoxy)pyridine-3-carboxamide] |
